In the supplement of paper PMC10627819:

Key:
[1] = test system: B. subtilis 168; assay: Bliss interaction score (quartile over a dose matrix) (fitness difference); higher = more antagonism (negative = synergy)
Outline: (§1)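 The Bliss score was calculated by subtracting the expected fitness, the product of single-drug values, from the observed fitness. OD595 at entry into stationary phase, over the plate's robust no-drug mean and capped at 1, served as the fitness readout. Single-drug values were inferred from combination data, and scores are summarised by quartiles across technical, biological and donor/recipient replicates.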

[2] = test system: S. aureus DSM 20231; assay: as above
Outline: as §1

[3] = test system: S. pneumoniae D39V; assay: as above
Outline: as §1

[4] = test system: S. aureus Newman; assay: as above
Outline: as §1

[5] = test system: B. subtilis 168; assay: fitness (endpoint OD595 vs no drug) (fraction); higher = more growth
Outline: (§2)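 Bacterial fitness was scored as optical density at the stationary-phase transition relative to the robust mean of no-drug control wells. Scores are capped at 1. The growth data were OD595 readings every 30 min for 14 h at 37 °C, background-subtracted against the first reading, from 384-well plates inoculated at OD595 0.01 in TSB, LB Lennox or CY.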

[6] = test system: S. pneumoniae D39V; assay: as above
Outline: as §2
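For Bliss interaction score (quartile over a dose matrix) in this document: first quartile when negative (synergy) and third quartile when positive (antagonism).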

C[C@H]1c2cccc(O)c2C(=O)C2=C(O)[C@]3(O)C(=O)C(C(N)=O)=C(O)[C@@H](N(C)C)[C@@H]3[C@@H](O)[C@@H]21 [Doxycycline] + COc1c(N2C[C@@H]3CCCN[C@@H]3C2)c(F)cc2c(=O)c(C(=O)O)cn(C3CC3)c12 [Moxifloxacin]
Settings	Bliss interaction score
[1]	0.0361
[2]	0.0965
[3]	-0.0559
[4]	0.036

Settings	fitness
[5], first compound 0.02 µg/mL, partner 0.0312 µg/mL	0.0633
[5], first compound 0.02 µg/mL, partner 0.0625 µg/mL	0.0369
[5], first compound 0.02 µg/mL, partner 0.125 µg/mL	0.0526
[5], first compound 0.02 µg/mL, partner 2 µg/mL	0.0252
[5], first compound 0.02 µg/mL, partner 4 µg/mL	0.0301
[5], first compound 0.02 µg/mL, partner 8 µg/mL	0.061
[5], first compound 0.04 µg/mL, partner 0.0312 µg/mL	0.0435
[5], first compound 0.04 µg/mL, partner 0.0625 µg/mL	0.0347
[5], first compound 0.04 µg/mL, partner 0.125 µg/mL	0.0489
[5], first compound 0.04 µg/mL, partner 2 µg/mL	0.0204
[5], first compound 0.04 µg/mL, partner 4 µg/mL	0.013
[5], first compound 0.04 µg/mL, partner 8 µg/mL	0.0253
[5], first compound 0.08 µg/mL, partner 0.0625 µg/mL	0.03
[5], first compound 0.08 µg/mL, partner 0.125 µg/mL	0.0215
[5], first compound 0.08 µg/mL, partner 2 µg/mL	0.0234
[5], first compound 0.08 µg/mL, partner 4 µg/mL	0.0247
[5], first compound 0.08 µg/mL, partner 8 µg/mL	0.0278
[6], first compound 0.0155 µg/mL, partner 0.0037 µg/mL	0.791
[6], first compound 0.0155 µg/mL, partner 0.005 µg/mL	0.918
[6], first compound 0.0155 µg/mL, partner 0.0075 µg/mL	0.838
[6], first compound 0.0155 µg/mL, partner 0.01 µg/mL	0.919
[6], first compound 0.0155 µg/mL, partner 0.015 µg/mL	0.857
[6], first compound 0.0155 µg/mL, partner 0.02 µg/mL	0.834
[6], first compound 0.031 µg/mL, partner 0.005 µg/mL	0.886
[6], first compound 0.031 µg/mL, partner 0.01 µg/mL	0.896
[6], first compound 0.031 µg/mL, partner 0.02 µg/mL	0.783
[6], first compound 0.062 µg/mL, partner 0.005 µg/mL	0.807
[6], first compound 0.062 µg/mL, partner 0.01 µg/mL	0.856
[6], first compound 0.062 µg/mL, partner 0.02 µg/mL	0.807

fitness, [6], one replicate
Settings	first compound 0.003875 µg/mL	first compound 0.00775 µg/mL	first compound 0.031 µg/mL	first compound 0.062 µg/mL
partner 0.0037 µg/mL	0.939	0.881	0.692	0.352
partner 0.0075 µg/mL	0.952	0.894	0.806	0.679
partner 0.015 µg/mL	0.909	0.874	0.721	0.59

C[C@H]1c2cccc(O)c2C(=O)C2=C(O)[C@]3(O)C(=O)C(C(N)=O)=C(O)[C@@H](N(C)C)[C@@H]3[C@@H](O)[C@@H]21 [Doxycycline] + CN(C)C(=O)C(CCN1CCC(O)(c2ccc(Cl)cc2)CC1)(c1ccccc1)c1ccccc1 [Loperamide]
Settings	Bliss interaction score
[1]	-0.189
[2]	0.107
[3]	0.193
[4]	0.0172

Settings	fitness
[5], first compound 0.02 µg/mL, partner 25 µg/mL	0.544
[5], first compound 0.02 µg/mL, partner 50 µg/mL	0.0585
[5], first compound 0.02 µg/mL, partner 100 µg/mL	0.0358
[5], first compound 0.04 µg/mL, partner 25 µg/mL	0.0527
[5], first compound 0.04 µg/mL, partner 50 µg/mL	0.0434
[5], first compound 0.04 µg/mL, partner 100 µg/mL	0.0354
[5], first compound 0.08 µg/mL, partner 25 µg/mL	0.0276
[5], first compound 0.08 µg/mL, partner 50 µg/mL	0.0338
[5], first compound 0.08 µg/mL, partner 100 µg/mL	0.0354
[6], first compound 0.0155 µg/mL, partner 17.14 µg/mL	0.874
[6], first compound 0.0155 µg/mL, partner 20 µg/mL	≥ 1
[6], first compound 0.0155 µg/mL, partner 34.28 µg/mL	0.861
[6], first compound 0.0155 µg/mL, partner 40 µg/mL	≥ 1
[6], first compound 0.0155 µg/mL, partner 80 µg/mL	≥ 1
[6], first compound 0.031 µg/mL, partner 17.14 µg/mL	0.939
[6], first compound 0.031 µg/mL, partner 34.28 µg/mL	0.932
[6], first compound 0.062 µg/mL, partner 17.14 µg/mL	0.864
[6], first compound 0.062 µg/mL, partner 34.28 µg/mL	0.895

fitness, [6], one replicate
Settings	first compound 0.003875 µg/mL	first compound 0.00775 µg/mL	first compound 0.0155 µg/mL	first compound 0.031 µg/mL	first compound 0.062 µg/mL
partner 20 µg/mL	≥ 1	≥ 1	–	0.976	0.836
partner 40 µg/mL	≥ 1	≥ 1	–	0.942	0.826
partner 68.57 µg/mL	–	–	0.858	0.875	0.966
partner 80 µg/mL	≥ 1	≥ 1	–	0.973	0.764

C[C@H]1c2cccc(O)c2C(=O)C2=C(O)[C@]3(O)C(=O)C(C(N)=O)=C(O)[C@@H](N(C)C)[C@@H]3[C@@H](O)[C@@H]21 [Doxycycline] + COc1ccc(C[C@H](N)C(=O)N[C@H]2[C@@H](O)[C@H](n3cnc4c(N(C)C)ncnc43)O[C@@H]2CO)cc1 [Puromycin]
Settings	Bliss interaction score
[1]	-0.0496
[2]	-0.0866
[3]	0.0767
[4]	-0.0507

Settings	fitness
[5], first compound 0.02 µg/mL, partner 0.39 µg/mL	0.861
[5], first compound 0.02 µg/mL, partner 0.78 µg/mL	0.858
[5], first compound 0.02 µg/mL, partner 1.56 µg/mL	0.877
[5], first compound 0.04 µg/mL, partner 0.39 µg/mL	0.748
[5], first compound 0.04 µg/mL, partner 0.78 µg/mL	0.751
[5], first compound 0.04 µg/mL, partner 1.56 µg/mL	0.761
[5], first compound 0.08 µg/mL, partner 0.39 µg/mL	0.405
[6], first compound 0.0155 µg/mL, partner 1 µg/mL	≥ 1
[6], first compound 0.0155 µg/mL, partner 2 µg/mL	0.97
[6], first compound 0.0155 µg/mL, partner 4 µg/mL	0.834
[6], first compound 0.031 µg/mL, partner 1 µg/mL	0.857
[6], first compound 0.031 µg/mL, partner 2 µg/mL	0.836
[6], first compound 0.031 µg/mL, partner 4 µg/mL	0.73
[6], first compound 0.062 µg/mL, partner 1 µg/mL	0.847
[6], first compound 0.062 µg/mL, partner 2 µg/mL	0.786
[6], first compound 0.062 µg/mL, partner 4 µg/mL	0.637

fitness, [6], one replicate
Settings	partner 1 µg/mL	partner 2 µg/mL	partner 4 µg/mL
first compound 0.003875 µg/mL	≥ 1	0.98	0.847
first compound 0.00775 µg/mL	≥ 1	0.976	0.86

C[C@H]1c2cccc(O)c2C(=O)C2=C(O)[C@]3(O)C(=O)C(C(N)=O)=C(O)[C@@H](N(C)C)[C@@H]3[C@@H](O)[C@@H]21 [Doxycycline] + O=C(O[C@@H]1Cc2c(O)cc(O)cc2O[C@@H]1c1cc(O)c(O)c(O)c1)c1cc(O)c(O)c(O)c1 [EGCG]
Settings	Bliss interaction score
[1]	0.147
[2]	0.0387
[3]	-0.0707
[4]	0.088

Settings	fitness
[5], first compound 0.02 µg/mL, partner 6.25 µg/mL	0.901
[5], first compound 0.04 µg/mL, partner 6.25 µg/mL	0.767
[5], first compound 0.08 µg/mL, partner 6.25 µg/mL	0.53
[5], first compound 0.08 µg/mL, partner 12.5 µg/mL	0.315
[5], first compound 0.08 µg/mL, partner 25 µg/mL	0.0902
[6], first compound 0.0155 µg/mL, partner 12.5 µg/mL	0.85
[6], first compound 0.0155 µg/mL, partner 25 µg/mL	0.864
[6], first compound 0.0155 µg/mL, partner 50 µg/mL	0.881
[6], first compound 0.031 µg/mL, partner 25 µg/mL	0.755

fitness, [6], one replicate
Settings	partner 12.5 µg/mL	partner 25 µg/mL	partner 50 µg/mL
first compound 0.003875 µg/mL	0.954	0.985	0.995
first compound 0.00775 µg/mL	0.919	0.966	0.964

O=C(O)c1cn(C2CC2)c2cc(N3CCNCC3)c(F)cc2c1=O [Ciprofloxacin] + C[C@H]1c2cccc(O)c2C(=O)C2=C(O)[C@]3(O)C(=O)C(C(N)=O)=C(O)[C@@H](N(C)C)[C@@H]3[C@@H](O)[C@@H]21 [Doxycycline]
Settings	Bliss interaction score
[1]	0.183
[2]	0.0661
[3]	0.0673
[4]	0.0631

fitness
Settings	partner 0.0155 µg/mL	partner 0.02 µg/mL	partner 0.031 µg/mL	partner 0.04 µg/mL	partner 0.08 µg/mL
[5], first compound 0.0098 µg/mL	–	0.879	–	0.813	0.677
[5], first compound 0.0195 µg/mL	–	0.726	–	0.688	0.58
[6], first compound 0.125 µg/mL	0.891	–	0.742	–	–
[6], first compound 0.25 µg/mL	0.892	–	0.703	–	–

fitness, [6], one replicate
Settings	first compound 0.125 µg/mL	first compound 0.25 µg/mL	first compound 0.5 µg/mL
partner 0.003875 µg/mL	≥ 1	0.931	0.804
partner 0.00775 µg/mL	0.967	0.913	0.825
